The target of experiment [1] is T1, Angiomotin (Homo sapiens) (UniProt Q4VCS5).
T1 sequence (whole entry): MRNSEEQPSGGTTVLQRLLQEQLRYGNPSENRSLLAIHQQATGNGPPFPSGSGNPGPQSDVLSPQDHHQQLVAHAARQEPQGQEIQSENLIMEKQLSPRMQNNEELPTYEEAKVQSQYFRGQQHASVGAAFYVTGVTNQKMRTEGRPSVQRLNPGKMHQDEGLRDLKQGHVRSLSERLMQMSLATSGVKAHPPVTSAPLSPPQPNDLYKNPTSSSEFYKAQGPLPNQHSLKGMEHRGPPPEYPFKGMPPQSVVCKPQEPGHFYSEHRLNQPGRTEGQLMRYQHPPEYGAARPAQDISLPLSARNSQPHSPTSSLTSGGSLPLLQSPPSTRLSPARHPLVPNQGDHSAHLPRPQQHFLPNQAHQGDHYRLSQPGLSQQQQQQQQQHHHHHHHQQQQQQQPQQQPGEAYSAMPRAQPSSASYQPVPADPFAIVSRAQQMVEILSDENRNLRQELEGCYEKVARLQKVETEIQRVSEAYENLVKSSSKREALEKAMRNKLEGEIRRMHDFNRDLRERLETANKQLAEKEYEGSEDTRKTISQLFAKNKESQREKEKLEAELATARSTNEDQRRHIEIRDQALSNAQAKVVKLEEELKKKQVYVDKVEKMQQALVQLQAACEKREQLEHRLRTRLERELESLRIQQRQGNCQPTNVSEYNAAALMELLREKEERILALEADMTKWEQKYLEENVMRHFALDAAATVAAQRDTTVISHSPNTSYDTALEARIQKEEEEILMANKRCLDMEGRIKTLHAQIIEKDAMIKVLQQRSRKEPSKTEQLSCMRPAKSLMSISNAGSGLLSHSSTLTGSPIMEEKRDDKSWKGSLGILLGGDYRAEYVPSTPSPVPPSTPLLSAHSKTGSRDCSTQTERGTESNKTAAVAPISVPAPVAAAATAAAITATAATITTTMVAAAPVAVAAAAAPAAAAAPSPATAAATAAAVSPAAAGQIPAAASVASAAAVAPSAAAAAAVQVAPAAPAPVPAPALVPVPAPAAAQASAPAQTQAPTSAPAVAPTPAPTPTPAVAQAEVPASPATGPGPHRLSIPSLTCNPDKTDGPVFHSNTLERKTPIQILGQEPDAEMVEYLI
Briefly: Binding affinity to recombinant GST-tagged Amot (H343 to I675 residues) (unknown origin) expressed in Escherichia coli at 50 uM using Amot immobilized on gold electrode of QCM sensor chip by […] biosensor-based assay.

A further experiment concerns HUVEC. Briefly: Inhibition of cell proliferation of HUVEC at 12.5 to 200 uM after 72 hrs by MTS assay. The conditions noted are these: Homo sapiens. In kind it is functional, cell-based.
For experiment [2], the target named is T1, Angiomotin (Homo sapiens). In words: Binding affinity to recombinant GST-tagged Amot (H343 to I675 residues) (unknown origin) expressed in Escherichia coli at 25 uM using Amot immobilized on gold electrode of QCM sensor chip by […] biosensor-based assay.

The source made the active and inactive calls. The calls are words filed in the database; no cut-off is given here.

As a reminder, the IC50 is the concentration that inhibits the measured activity by half. A high value points to a need for much substance. For `CC[C@H]1OC(=O)[C@H](C)[C@@H](O[C@H]2C[C@@](C)(OC)[C@@H](O)[C@H](C)O2)[C@H](C)[C@@H](O[C@@H]2O[C@H](C)C[C@H](N(C)C)[C@H]2O)[C@](C)(O)C[C@@H](C)/C(=N\OCOCCOC)[C@H](C)[C@@H](O)[C@]1(C)O` [ROXITHROMYCIN], the result in experiment [1] and in experiment [2] was Active. In the experiment with HUVEC, this compound showed a half-maximal inhibitory concentration (IC50) of 100 µM.
